We go through 14 molecules from patent US7517905B2, “Substituted azabicyclo hexane derivatives as muscarinic receptor antagonists” (Ranbaxy Laboratories Limited, priority 2003, dated 2009).

In one test the target is T1, M2 muscarinic receptor (Rattus norvegicus, UniProt P10980).
T1 construct: Submandibular glands and heart were isolated and placed in ice cold homogenizing buffer; from tissue; host or cells: rat heart membrane homogenate
T1 sequence (P10980 1-466): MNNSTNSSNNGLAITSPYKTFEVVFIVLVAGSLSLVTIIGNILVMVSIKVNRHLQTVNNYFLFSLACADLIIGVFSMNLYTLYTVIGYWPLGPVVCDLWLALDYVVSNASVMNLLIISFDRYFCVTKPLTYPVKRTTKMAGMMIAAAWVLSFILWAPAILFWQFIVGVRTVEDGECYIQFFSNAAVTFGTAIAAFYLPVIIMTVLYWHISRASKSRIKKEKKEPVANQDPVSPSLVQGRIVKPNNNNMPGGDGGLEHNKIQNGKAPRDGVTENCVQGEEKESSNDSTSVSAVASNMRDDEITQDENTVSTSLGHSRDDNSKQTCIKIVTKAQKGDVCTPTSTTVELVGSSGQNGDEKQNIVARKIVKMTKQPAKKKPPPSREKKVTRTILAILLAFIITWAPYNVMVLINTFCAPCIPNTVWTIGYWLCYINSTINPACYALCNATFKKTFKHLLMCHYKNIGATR
The test is described as follows: Radioligand binding assay, [3H]-N-methyl scopolamine, rat heart membranes. Particulars: [3H]NMS displacement, Ki by Cheng & Prusoff; for Ki: read-out: Receptor Binding Assay M2 pKi (converted). How it is done: The affinity of test compounds for M2 and M3 muscarinic receptor subtypes was determined by [^3H]—N-methyl scopolamine binding studies using rat heart and submandibular gland, respectively as described by Moriya et al., (Life Sci, 1999, 64(25): 2351-2358).
(§1) Membrane preparation: Submandibular glands and heart were isolated and placed in ice cold homogenizing buffer (HEPES 20 mM, 10 mM EDTA, and pH 7.4) immediately after sacrifice. The tissues were homogenized in 10 volumes of homogenizing buffer and the homogenate was filtered through two layers of wet gauze and filtrate was centrifuged at 500 g for 10 min. The supernatant was subsequently centrifuged at 40.000 g for 20 min. The pallet thus obtained was resuspended in same volume of assay buffer (HEPES 20 mM, EDTA 5 mM, pH 7.4) and were stored at −70° C. until the time of assay.
Ligand binding assay: The compounds were dissolved and diluted in dimethylsulfoxide. The membrane homogenates (150-250 μg protein) were incubated in 250 ul of assay buffer HEPES 20 mM, pH 7.4) at 24-25° C. for 3 hour. Non-specific binding was determined in the presence of 1 μM atropine. The incubation was terminated by vacuum filtration over GF/B fiber filters (Wallac). The filters were then washed with ice-cold 50 mM Tris HCI buffer (pH 7.4). The filter mats were dried and bound radioactivity retained on filters was counted. The IC50 & Kd were estimated by using the non-linear curve-fitting program using G Pad Prism software. The value of inhibition constant Ki was calculated from competitive binding studies by using Cheng & Prusoff equation (Biochem Pharmacol, 1973.22: 3099-3108), Ki=IC50/(1+L/Kd), where L is the concentration of [^3H]NMS used in the particular experiment. pKi=−log Ki Functional Experiments using Isolated Rat Bladder: Methodology: […]

Another test concerns the target T2, M3 muscarinic receptor (Rattus norvegicus, UniProt P08483).
T2 construct: Submandibular glands and heart were isolated and placed in ice cold homogenizing buffer; from tissue; host or cells: rat submandibular gland membrane homogenate
The test is described as follows: Radioligand binding assay, [3H]-N-methyl scopolamine, rat submandibular gland membranes. Particulars: [3H]NMS displacement, Ki by Cheng & Prusoff; for Ki: read-out: Receptor Binding Assay M3 pKi (converted). On the procedure: as §1
Ligand binding assay: The compounds were dissolved and diluted in dimethylsulfoxide. The membrane homogenates (150-250 μg protein) were incubated in 250 ul of assay buffer HEPES 20 mM, pH 7.4) at 24-25° C. for 3 hour. Non-specific binding was determined in the presence of 1 μM atropine. The incubation was terminated by vacuum filtration over GF/B fiber filters (Wallac). The filters were then washed with ice-cold 50 mM Tris HCI buffer (pH 7.4). The filter mats were dried and bound radioactivity retained on filters was counted. The IC50 & Kd were estimated by using the non-linear curve-fitting program using G Pad Prism software.

Another test relates to isolated rat bladder. Briefly: Functional experiments using isolated rat bladder (carbachol concentration response curve). It is filed as cell-based. Conditions: isolated rat bladder strips, carbachol-induced contraction, antagonist added 20 min before second CRC; for Kb: read-out: Functional Assay pKB (converted). How it is done:
Animals were euthanized by overdose of urethane and whole bladder was isolated and removed rapidly and placed in cold Tyrode buffer with the following composition (mMol/L) sodium chloride 137; KCl 2.7, CaCl2 1.8, MgCl2 0.1; NaHCO3 11.9, NaH2PO4 0.4; Glucose 5.55 and continuously gassed with 95% O2 and 5% CO2
The bladder was cut into longitudinal strips (3 mm wide and 5-6 mm long) and mounted in 10 ml organ baths at 30° C., with one end connected to the base of the tissue holder and the other end connected to a polygraph through a force displacement transducer. Each tissue was maintained at a constant basal tension of 2 g and allowed to equilibrate for 1 hour during which the PSS was changed every 15 min. At the end of equilibration period, the stabilization of the tissue contractile response was assessed with 1 u mol/L of carbachol consecutively for 2-3 times. Subsequently, a cumulative concentration response curve to carbachol (10^−9 mol/L to 3×10^−5 mol/L) was obtained. After several washes, once the baseline was achieved, cumulative concentration response curve was obtained in the presence of NCE (NCE added 20 min. prior to the second CRC).
The contractile results were expressed as % of control E max ED50 values were calculated by fitting a non-linear regression curve (Graph Pad Prism). PKB values were calculated by the formula pKB=−log [(molar concentration of antagonist/(dose ratio-1))] where,
dose ratio=ED50 in the presence of antagonist/ED50 in the absence of antagonist.

T2 sequence (P08483 whole entry): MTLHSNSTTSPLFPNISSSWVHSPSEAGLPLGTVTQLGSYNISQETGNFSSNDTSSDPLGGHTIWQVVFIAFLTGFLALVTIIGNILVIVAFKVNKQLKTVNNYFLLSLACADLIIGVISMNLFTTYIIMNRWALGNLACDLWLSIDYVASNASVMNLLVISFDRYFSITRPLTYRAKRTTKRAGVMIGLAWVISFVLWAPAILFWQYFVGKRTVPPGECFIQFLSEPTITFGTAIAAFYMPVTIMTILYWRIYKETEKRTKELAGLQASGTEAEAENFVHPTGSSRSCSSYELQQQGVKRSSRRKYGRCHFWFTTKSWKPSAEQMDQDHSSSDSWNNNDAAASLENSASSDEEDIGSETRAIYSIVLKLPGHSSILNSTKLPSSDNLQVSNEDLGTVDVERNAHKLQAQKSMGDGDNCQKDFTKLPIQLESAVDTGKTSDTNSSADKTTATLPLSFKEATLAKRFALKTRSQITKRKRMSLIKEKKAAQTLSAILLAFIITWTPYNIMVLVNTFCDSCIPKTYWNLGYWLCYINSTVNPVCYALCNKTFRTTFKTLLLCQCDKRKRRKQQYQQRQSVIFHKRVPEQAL

In the case of “3-(2-methoxy-5-methylphenyl)-3-phenylpropanoic acid-4-[(3-azabicyclo[3.1.0]hex-6-yl]-ethoxy carbonylamino]butyl ester [Compound No. 5]”, on M2 muscarinic receptor, the “Receptor Binding Assay M2 pKi” value was <6. For the same molecule, the “Receptor Binding Assay M3 pKi” value at M3 muscarinic receptor is <6. For the same molecule, the “Functional Assay pKB” value in the test on isolated rat bladder was 5.15.
On to `Cc1ccc(O)c(C(CCNC2C3CN(Cc4ccccc4)CC32)c2ccccc2)c1` (single isomer, unassigned) [Compound No. 16, (R or S)—N-(3-benzy-1-3-azabicyclo[3.1.0]hex-6-yl]-[3-(2-hydroxy-5-methylphenyl)-3-phenylpropyl]amine], for which the “Functional Assay pKB” value in the test with isolated rat bladder is recorded as 7.25 ± 0.15.
On to `COc1ccc(C)cc1C(CC(=O)OCC(=O)NC1C2CN(Cc3ccccc3)CC21)c1ccccc1` (centres unmarked) [Compound No. 1, 3-(2-Methoxy-5-methylphenyl)-3-phenyl propanoic acid-(3-benzyl-3-azabicyclo[3.1.0]hexane-6-yl-carbamoyl)methyl ester], for which the Ki at M2 muscarinic receptor and on M3 muscarinic receptor was > 1000 nM throughout. Moreover, the Kb in the test with isolated rat bladder is 9770 nM.
For `Cc1ccc(OCc2ccccc2)c(C(CC(=O)OCC(=O)NC2C3CN(Cc4ccccc4)CC32)c2ccccc2)c1` (centres unmarked) [Compound No. 2, 3-(2-benzyloxy-5-methylphenyl)-3-phenyl propanoic acid-(3-benzyl-3-azabicyclo[3.1.0]-hex-6-ylcarbamoyl)-methyl ester], the Ki at M2 muscarinic receptor and at M3 muscarinic receptor was > 1000 nM in each case. Further, the Kb with isolated rat bladder is 6760 nM.
Consider `Cc1ccc(O)c(C(CC(=O)NC2C3CNCC32)c2ccccc2)c1` (centres unmarked) [Compound No. 3, N-(3-azabicyclo[3.1.0]hex-6-yl)-3-(2-hydroxy-5-methylphenyl)-3-phenyl-1-propanoic acid], for which the “Receptor Binding Assay M2 pKi” value at M2 muscarinic receptor was <6. The “Receptor Binding Assay M3 pKi” value at M3 muscarinic receptor is on record as <6. Further, in the test with isolated rat bladder, the “Functional Assay pKB” value was 5.95.
On to `COc1ccc(C)cc1C(CC(=O)NC1C2CNCC21)c1ccccc1` (centres unmarked) [Compound No. 4, N-(3-azabicyclo[3.1.0]hex-6-yl)-3-(2-methoxy-5-methylphenyl)-3-phenyl-1-propionamide], for which, on M2 muscarinic receptor, the “Receptor Binding Assay M2 pKi” value is on record as <6. For the same molecule, on M3 muscarinic receptor, the “Receptor Binding Assay M3 pKi” value is <6. Also, the “Functional Assay pKB” value in the test on isolated rat bladder is recorded as 5.64.
Take `Cc1ccc(O)c(C(CC(=O)OCCCCNOCCC2C3CNCC23)c2ccccc2)c1` (centres unmarked) [Compound No. 6, 3-(2-hydroxy-5-methylphenyl)-3-phenylpropionic acid 4-[(3-azabicyclo[3.1.0]hex-6-yl)ethoxyamino]butyl ester]: on M2 muscarinic receptor, the “Receptor Binding Assay M2 pKi” value was <6. Also, the “Receptor Binding Assay M3 pKi” value on M3 muscarinic receptor is <6. Also, the “Functional Assay pKB” value in the test on isolated rat bladder was 5.84.
In the case of `COc1ccc(C)cc1C(CC(=O)OCC(=O)NC1C2CNCC21)c1ccccc1` (centres unmarked) [Compound No. 7, 3-(2-methoxy-5-methylphenyl)-3-phenylpropionic acid-(3-azabicyclo[3.1.0]hex-6-ylcarbamoyl)methyl ester], the Ki on M2 muscarinic receptor and on M3 muscarinic receptor was > 1000 nM throughout. In addition, in the test with isolated rat bladder, the Kb was 2510 nM.
As to `Cc1ccc(O)c(C(CC(=O)OCC(=O)NC2C3CNCC32)c2ccccc2)c1` (centres unmarked) [Compound No. 8, 3-(2-hydroxy-5-methylphenyl)-3-phenylpropionic acid-(3-azabicyclo[3.1.0]hex-6-ylcarbamoyl)methyl ester], the Ki on M2 muscarinic receptor and on M3 muscarinic receptor was > 1000 nM in each case. Also, the “Functional Assay pKB” value in the test on isolated rat bladder is “No blockade”.
Regarding `Cc1ccc(O)c(C(CC(=O)NCC(=O)NC2C3CN(Cc4ccccc4)CC32)c2ccccc2)c1` (centres unmarked) [Compound No. 9, N-[(3-benzyl-3-azabicyclo[3.1.0]hex-6-ylcarbamoyl)-methyl]-3-(2-hydroxy-5-methylphenyl)-3-phenyl-propionamide], the Ki on M2 muscarinic receptor and on M3 muscarinic receptor was > 1000 nM in each case. Further, the Kb in the test with isolated rat bladder is 1910 nM.
`COc1ccc(C)cc1C(CC(=O)NCC(=O)N[C@H]1[C@@H]2CN(Cc3ccccc3)C[C@@H]21)c1ccccc1` (some centres unmarked) [Compound No. 10, N-[(3-benzyl-3-azabicyclo[3.1.0]hex-6-ylcarbamoyl]-methyl]-3(-2-methoxy-5-methylphenyl)-3-phenyl propionamide]: the Ki at M2 muscarinic receptor and on M3 muscarinic receptor was > 1000 nM each time. For the same molecule, the Kb with isolated rat bladder was 1950 nM.
Consider `Cc1ccc(O)c(C(CC(=O)N[C@H]2[C@@H]3CN(Cc4ccccc4)C[C@@H]32)c2ccccc2)c1` (some centres unmarked) [Compound No. 11, N-(3-benzyl-3-azabicyclo[3.1.0]hex-6-yl)-3-(2-hydroxy-5-methylphenyl)-3-phenyl propionamide], for which the Ki on M2 muscarinic receptor and on M3 muscarinic receptor was > 1000 nM each time. Besides, in the test on isolated rat bladder, the Kb is 6760 nM.
On to `CCOC(=O)N(CCCCOC(=O)CC(c1ccccc1)c1cc(C)ccc1OC)C1C2CN(Cc3ccccc3)CC21` (centres unmarked) [Compound No. 12, 3-(2-methoxy-5-methylphenyl)-3-phenylpropionic acid-4-[(3-benzyl-3-azabicyclo[3.1.0]hex-6-yl)-ethoxycarbonylamino]butyl ester], for which the “Receptor Binding Assay M2 pKi” value on M2 muscarinic receptor is <6. The “Receptor Binding Assay M3 pKi” value on M3 muscarinic receptor is reported as <6. In addition, the “Functional Assay pKB” value with isolated rat bladder is recorded as 6.72.
With `Cc1ccc(O)c([C@H](CCN(C(C)C)C(C)C)c2ccccc2)c1` [Tolterodine, reference compound], the Kb in the test on isolated rat bladder is 1.38 nM.
